{
  "source": "ChEMBL document CHEMBL4673406",
  "about": "“Discovery and Preclinical Evaluation of BMS-986242, a Potent, Selective Inhibitor of Indoleamine-2,3-dioxygenase 1” (ACS Med Chem Lett, 2021)",
  "key": {"[1]": {"target": "CYP450 (Homo sapiens, UniProt P04798+P05177+P05181+P08684+P10632+P10635+P11509+P11712+P13584+P20813+P20815+P20853+P24462+P24903+P33260+P33261+P51589+P78329+P98187+Q02928+Q08477+Q16678+Q16696+Q5TCH4+Q6VVX0+Q7Z449+Q8TAV3+Q96SQ9+Q9HB55)", "assay": "Inhibition of human CYP450", "assay_type": "ADME, protein assay"}, "[2]": {"assay": "Oral bioavailability in rat at 2 mg/kg", "assay_type": "ADME, organism-based", "details": "in vivo"}, "[3]": {"assay": "Half life in dog at 1 mg/kg, iv", "assay_type": "ADME, organism-based, Canis lupus familiaris", "details": "in vivo"}, "[4]": {"assay": "Volume of distribution at steady state in rat at 0.5 mg/kg, iv", "assay_type": "ADME, organism-based", "details": "in vivo"}, "[5]": {"target": "Indoleamine 2,3-dioxygenase 1 (Mus musculus) (UniProt P28776)", "sequence (P28776 whole entry, looked up)": "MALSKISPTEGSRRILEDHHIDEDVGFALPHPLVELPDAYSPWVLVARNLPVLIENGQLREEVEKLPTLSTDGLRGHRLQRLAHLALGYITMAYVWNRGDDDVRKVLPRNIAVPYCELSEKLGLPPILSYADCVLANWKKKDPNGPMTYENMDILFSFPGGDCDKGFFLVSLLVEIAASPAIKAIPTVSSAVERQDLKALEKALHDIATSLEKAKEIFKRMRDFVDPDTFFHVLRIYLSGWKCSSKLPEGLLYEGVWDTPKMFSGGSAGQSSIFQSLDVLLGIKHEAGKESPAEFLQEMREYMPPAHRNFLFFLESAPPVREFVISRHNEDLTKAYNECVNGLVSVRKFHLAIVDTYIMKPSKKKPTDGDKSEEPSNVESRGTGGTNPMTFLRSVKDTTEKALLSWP", "assay": "In vivo inhibition of IDO1 in nu/nu mouse xenografted with human SK-OV-3 cells assessed as reduction in kynurenine level at 3 mg/kg, po qd by HPLC-MS/MS analysis relative to control", "assay_type": "functional, organism-based"}, "[6]": {"assay": "Permeability of the compound at pH 7.4 by PAMPA", "assay_type": "ADME", "details": "read-out: permeability"}, "[7]": {"assay": "Metabolic stability in dog hepatocytes assessed as CYP450-mediated compound metabolism by measuring half life", "assay_type": "ADME, cell-based, Canis lupus familiaris, Hepatocyte"}, "[8]": {"assay": "in vitro", "details": "human, liver microsomes", "description": "Metabolic stability in human liver microsomes assessed as parent compound remaining at 0.5 uM measured after 10 mins"}, "[9]": {"assay": "Metabolic stability in cynomolgus monkey hepatocytes assessed as UGT-mediated compound glucuronidation by measuring half life", "assay_type": "ADME, cell-based, Macaca fascicularis, Hepatocyte"}, "[10]": {"assay": "Protein binding in mouse plasma assessed as free fraction", "assay_type": "ADME, cell-free"}, "[11]": {"assay": "in vitro", "details": "mouse, liver microsomes", "description": "Metabolic stability in mouse liver microsomes assessed as parent compound remaining at 0.5 uM measured after 10 mins"}, "[12]": {"assay": "AUC in cynomolgus monkey at 5 mg/kg, po", "assay_type": "ADME, organism-based, Macaca fascicularis", "set-up": "dose 5 mg/kg", "details": "in vivo"}, "[13]": {"assay": "Oral bioavailability in cynomolgus monkey at 5 mg/kg", "assay_type": "ADME, organism-based, Macaca fascicularis", "details": "in vivo"}, "[14]": {"assay": "AUC (0 to 24 hrs) in nu/nu mouse xenografted with human SK-OV-3 cells measured in tumor at 3 mg/kg, po qd by uHPLC-MS/MS analysis", "assay_type": "ADME, organism-based", "set-up": "time < 24 hr, route oral, dose 3 mg/kg"}, "[15]": {"target": "Cytochrome P450 2C19 (Homo sapiens, UniProt P33261)", "sequence (P33261 whole entry)": "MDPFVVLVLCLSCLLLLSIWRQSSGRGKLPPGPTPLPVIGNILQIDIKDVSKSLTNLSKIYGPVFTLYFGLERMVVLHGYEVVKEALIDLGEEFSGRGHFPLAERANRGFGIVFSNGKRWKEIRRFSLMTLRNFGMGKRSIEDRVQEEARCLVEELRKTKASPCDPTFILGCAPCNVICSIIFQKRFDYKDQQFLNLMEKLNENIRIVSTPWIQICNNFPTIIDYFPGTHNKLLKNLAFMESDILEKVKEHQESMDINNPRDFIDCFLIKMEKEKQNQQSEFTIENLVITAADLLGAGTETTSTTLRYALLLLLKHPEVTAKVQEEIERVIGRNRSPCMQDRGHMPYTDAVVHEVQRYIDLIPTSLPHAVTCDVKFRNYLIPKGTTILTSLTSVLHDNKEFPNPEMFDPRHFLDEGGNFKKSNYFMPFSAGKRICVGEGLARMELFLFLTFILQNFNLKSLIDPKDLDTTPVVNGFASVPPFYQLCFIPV", "assay": "Inhibition of human CYP2C19", "assay_type": "ADME"}, "[16]": {"target": "T1, Nuclear receptor subfamily 1 group I member 2 (Homo sapiens, UniProt O75469)", "T1 sequence (O75469 whole entry)": "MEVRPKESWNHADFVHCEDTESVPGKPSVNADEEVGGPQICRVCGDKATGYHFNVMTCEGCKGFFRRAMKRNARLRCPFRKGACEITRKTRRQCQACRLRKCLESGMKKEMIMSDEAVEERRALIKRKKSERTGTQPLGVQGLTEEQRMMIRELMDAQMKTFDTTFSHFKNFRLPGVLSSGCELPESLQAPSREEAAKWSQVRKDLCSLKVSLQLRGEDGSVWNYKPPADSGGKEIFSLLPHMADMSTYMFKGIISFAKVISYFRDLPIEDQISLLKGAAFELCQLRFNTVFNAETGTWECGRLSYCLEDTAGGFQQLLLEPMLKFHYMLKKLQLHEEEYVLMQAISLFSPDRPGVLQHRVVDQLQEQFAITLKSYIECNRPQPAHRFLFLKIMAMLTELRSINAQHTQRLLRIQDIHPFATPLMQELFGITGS", "assay": "Transactivation of PXR (unknown origin)", "assay_type": "ADME"}, "[17]": {"target": "UDP-glucuronosyltransferases (UGTs) (Homo sapiens, UniProt O60656+O75310+O75795+P06133+P0DTE4+P0DTE5+P16662+P19224+P22309+P22310+P35503+P35504+P36537+P54855+Q6UWM9+Q9BY64+Q9HAW7+Q9HAW8+Q9HAW9)", "assay": "Metabolic stability in human hepatocytes assessed as UGT-mediated compound glucuronidation by measuring half life", "assay_type": "ADME, cell-based, Hepatocyte"}, "[18]": {"assay": "Metabolic stability in mouse hepatocytes assessed as UGT-mediated compound glucuronidation by measuring half life", "assay_type": "ADME, cell-based, Hepatocyte"}, "[19]": {"assay": "AUC in rat at 0.5 mg/kg, iv", "assay_type": "ADME, organism-based", "set-up": "dose 0.5 mg/kg", "details": "in vivo"}, "[20]": {"assay": "Volume of distribution at steady state in mouse at 0.5 mg/kg, iv", "assay_type": "ADME, organism-based", "details": "in vivo"}},
  "data": [
    {"smiles": "C[C@@H](NC(=O)c1ccc(Cl)cc1)[C@H]1CC[C@@H](c2ccnc3ccc(F)cc32)CC1", "values": [
      {"measurement": "IC50", "setting": "[1]", "result": "> 15", "unit": "µM"},
      {"measurement": "bioavailability", "setting": "[2]", "result": 127, "unit": "%"},
      {"measurement": "t1/2", "setting": "[3]", "result": 0.317, "unit": "h"},
      {"measurement": "Vdss", "setting": "[4]", "result": 0.97, "unit": "L/kg"},
      {"measurement": "inhibition", "setting": "[5]", "result": 45, "unit": "%"},
      {"measurement": "Papp", "setting": "[6]", "result": 283, "unit": "×10⁻⁶ cm/s"},
      {"measurement": "half-life", "setting": "[7]", "result": 0.167, "unit": "h"},
      {"measurement": "remaining at 10 min, 0.5 µM", "setting": "[8]", "result": 54, "unit": "%"},
      {"measurement": "half-life", "setting": "[9]", "result": "> 2", "unit": "h"},
      {"measurement": "Fu", "setting": "[10]", "result": "< 0.2", "unit": "%"},
      {"measurement": "remaining at 10 min, 0.5 µM", "setting": "[11]", "result": 21, "unit": "%"},
      {"measurement": "AUC", "setting": "[12]", "result": 7.1, "unit": "µM·h"},
      {"measurement": "bioavailability", "setting": "[13]", "result": 42, "unit": "%"},
      {"measurement": "AUC at 24 h", "setting": "[14]", "result": 9.6, "unit": "µM·h"},
      {"measurement": "IC50", "setting": "[15]", "result": 3.37, "unit": "µM"},
      {"measurement": "EC50", "setting": "[16]", "result": "> 50", "unit": "µM"},
      {"measurement": "half-life", "setting": "[17]", "result": 2, "unit": "h"},
      {"measurement": "half-life", "setting": "[18]", "result": "> 2", "unit": "h"},
      {"measurement": "AUC", "setting": "[19]", "result": 5.6, "unit": "µM·h"},
      {"measurement": "Vdss", "setting": "[20]", "result": 17, "unit": "L/kg"}
    ]}
  ]
}
